ChEMBL document CHEMBL1777748 (Bioorg Med Chem Lett, 2011)
Blank lines part the entries; values can stand above or below the compound they belong to. The source made the active and inactive calls. The rule behind the calls is not given here.

Tests used:
[1] = target: T1, Prostaglandin D2 receptor 2 (Rattus norvegicus, UniProt Q6XKD3); test: Binding affinity to rat CRTh2 receptor
T1 sequence (Q6XKD3 whole entry): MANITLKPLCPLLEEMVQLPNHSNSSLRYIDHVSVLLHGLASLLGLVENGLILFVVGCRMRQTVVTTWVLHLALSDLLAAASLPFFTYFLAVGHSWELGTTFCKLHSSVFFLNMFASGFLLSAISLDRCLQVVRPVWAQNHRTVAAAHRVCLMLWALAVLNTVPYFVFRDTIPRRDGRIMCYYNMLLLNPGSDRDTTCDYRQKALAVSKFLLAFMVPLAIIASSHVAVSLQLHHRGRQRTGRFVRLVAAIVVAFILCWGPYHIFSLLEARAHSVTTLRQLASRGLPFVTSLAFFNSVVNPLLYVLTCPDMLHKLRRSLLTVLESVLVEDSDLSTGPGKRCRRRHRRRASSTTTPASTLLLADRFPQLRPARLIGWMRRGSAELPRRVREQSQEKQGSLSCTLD

Cytochrome P450 1A2 = target: T2, Cytochrome P450 1A2 (Homo sapiens, UniProt P05177); test: Inhibition of CYP1A2; assay type: ADME
T2 sequence (P05177 whole entry): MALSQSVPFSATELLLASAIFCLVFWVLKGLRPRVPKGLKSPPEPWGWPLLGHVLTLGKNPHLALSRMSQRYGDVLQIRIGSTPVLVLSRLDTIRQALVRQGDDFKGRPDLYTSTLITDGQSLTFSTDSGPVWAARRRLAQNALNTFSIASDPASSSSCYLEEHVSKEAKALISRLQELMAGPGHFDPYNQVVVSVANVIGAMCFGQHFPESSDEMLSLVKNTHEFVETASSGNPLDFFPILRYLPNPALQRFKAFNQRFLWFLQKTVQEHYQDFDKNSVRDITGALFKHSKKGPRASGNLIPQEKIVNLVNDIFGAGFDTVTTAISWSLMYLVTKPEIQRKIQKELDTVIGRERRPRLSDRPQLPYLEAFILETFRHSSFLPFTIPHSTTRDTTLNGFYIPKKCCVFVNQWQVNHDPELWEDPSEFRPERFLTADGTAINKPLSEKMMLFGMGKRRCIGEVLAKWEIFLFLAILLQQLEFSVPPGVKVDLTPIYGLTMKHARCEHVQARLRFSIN

[2] = target: T3, Chemoattractant receptor-homologous molecule expressed on Th2 cells (Cavia porcellus, UniProt Q56D28); test: Binding affinity to guinea pig CRTh2 receptor
T3 sequence (Q56D28 whole entry): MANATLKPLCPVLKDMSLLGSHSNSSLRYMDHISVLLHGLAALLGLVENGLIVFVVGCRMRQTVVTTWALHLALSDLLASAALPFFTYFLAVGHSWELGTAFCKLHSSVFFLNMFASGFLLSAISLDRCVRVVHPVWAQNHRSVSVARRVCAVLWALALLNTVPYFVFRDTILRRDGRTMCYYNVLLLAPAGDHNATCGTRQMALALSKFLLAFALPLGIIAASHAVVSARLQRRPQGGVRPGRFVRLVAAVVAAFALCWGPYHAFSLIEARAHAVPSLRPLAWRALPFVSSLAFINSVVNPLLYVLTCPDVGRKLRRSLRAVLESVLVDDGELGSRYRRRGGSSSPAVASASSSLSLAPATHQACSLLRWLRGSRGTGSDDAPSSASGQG

Cytochrome P450 2D6 = Cytochrome P450 2D6 (Homo sapiens, UniProt P10635); test: Inhibition of CYP2D6; assay type: ADME
Sequence of Cytochrome P450 2D6 (P10635 whole entry): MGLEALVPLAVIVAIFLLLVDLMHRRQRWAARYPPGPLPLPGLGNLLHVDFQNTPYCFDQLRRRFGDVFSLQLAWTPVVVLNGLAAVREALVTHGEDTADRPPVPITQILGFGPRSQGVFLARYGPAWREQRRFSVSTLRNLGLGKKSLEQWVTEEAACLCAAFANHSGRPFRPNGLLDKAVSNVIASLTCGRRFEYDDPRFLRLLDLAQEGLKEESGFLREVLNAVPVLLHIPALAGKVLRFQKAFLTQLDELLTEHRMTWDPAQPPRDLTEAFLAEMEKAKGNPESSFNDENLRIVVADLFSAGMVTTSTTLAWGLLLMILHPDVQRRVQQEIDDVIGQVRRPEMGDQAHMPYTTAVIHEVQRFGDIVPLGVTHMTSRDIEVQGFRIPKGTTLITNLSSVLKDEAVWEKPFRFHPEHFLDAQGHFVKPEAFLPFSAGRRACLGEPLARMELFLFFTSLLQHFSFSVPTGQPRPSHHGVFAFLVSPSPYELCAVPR

[3] = Fraction unbound in human plasma; assay type: ADME, cell-free
Cytochrome P450 2C9 = Cytochrome P450 2C9 (Homo sapiens, UniProt P11712); test: Inhibition of CYP2C9; assay type: ADME
Sequence of Cytochrome P450 2C9 (P11712 whole entry): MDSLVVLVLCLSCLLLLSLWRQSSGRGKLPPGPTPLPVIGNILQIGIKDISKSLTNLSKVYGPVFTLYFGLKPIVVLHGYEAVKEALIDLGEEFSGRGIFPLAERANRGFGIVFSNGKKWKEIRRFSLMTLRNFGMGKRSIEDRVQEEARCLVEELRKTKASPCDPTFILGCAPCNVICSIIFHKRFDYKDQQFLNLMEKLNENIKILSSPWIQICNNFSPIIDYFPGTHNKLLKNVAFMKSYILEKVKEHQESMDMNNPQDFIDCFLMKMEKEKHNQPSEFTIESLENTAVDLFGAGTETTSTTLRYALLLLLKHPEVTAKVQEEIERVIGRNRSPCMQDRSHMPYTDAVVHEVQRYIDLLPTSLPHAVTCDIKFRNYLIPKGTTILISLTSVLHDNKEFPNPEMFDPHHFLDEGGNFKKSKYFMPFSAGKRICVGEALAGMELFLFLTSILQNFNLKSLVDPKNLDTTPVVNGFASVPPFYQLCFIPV

[4] = target: T4, Prostaglandin D2 receptor 2 (Mus musculus, UniProt Q9Z2J6); test: Binding affinity to mouse CRTh2 receptor
T4 sequence (Q9Z2J6 whole entry): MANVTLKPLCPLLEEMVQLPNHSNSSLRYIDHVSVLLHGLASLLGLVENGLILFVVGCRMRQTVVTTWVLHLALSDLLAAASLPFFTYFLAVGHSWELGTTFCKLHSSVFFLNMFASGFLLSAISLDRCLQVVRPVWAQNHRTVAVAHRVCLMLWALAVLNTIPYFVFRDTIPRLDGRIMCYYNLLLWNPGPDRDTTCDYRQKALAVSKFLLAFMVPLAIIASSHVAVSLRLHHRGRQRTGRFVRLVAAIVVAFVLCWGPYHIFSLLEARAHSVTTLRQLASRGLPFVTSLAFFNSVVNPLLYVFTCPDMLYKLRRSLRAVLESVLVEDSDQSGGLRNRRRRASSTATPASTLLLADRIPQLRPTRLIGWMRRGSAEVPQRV

[5] = Fraction unbound in cynomolgus monkey plasma; assay type: ADME, cell-free, Macaca fascicularis
Cytochrome P450 2C19 = Cytochrome P450 2C19 (Homo sapiens, UniProt P33261); test: Inhibition of CYP2C19; assay type: ADME
Sequence of Cytochrome P450 2C19 (P33261 whole entry): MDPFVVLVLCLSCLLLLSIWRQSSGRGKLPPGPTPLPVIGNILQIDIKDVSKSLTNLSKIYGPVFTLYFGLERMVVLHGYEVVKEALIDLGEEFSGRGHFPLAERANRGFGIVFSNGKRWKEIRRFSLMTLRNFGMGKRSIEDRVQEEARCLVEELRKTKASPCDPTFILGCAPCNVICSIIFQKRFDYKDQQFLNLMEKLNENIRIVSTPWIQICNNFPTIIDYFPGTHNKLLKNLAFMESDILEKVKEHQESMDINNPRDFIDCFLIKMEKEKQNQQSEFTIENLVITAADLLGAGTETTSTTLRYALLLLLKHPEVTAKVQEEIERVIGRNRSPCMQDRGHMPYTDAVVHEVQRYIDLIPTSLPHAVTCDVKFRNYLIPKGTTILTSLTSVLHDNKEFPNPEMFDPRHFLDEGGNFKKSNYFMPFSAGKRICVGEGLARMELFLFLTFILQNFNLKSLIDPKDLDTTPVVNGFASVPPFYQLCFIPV

Mus musculus = species: Mus musculus; test: Protection against 11 days tobacco smoke-induced mucosal damage in mouse lung assessed as inhibition of inflammatory cells accumulation; assay type: functional, organism-based
[6] = Oral bioavailability in rat; assay type: ADME, organism-based; details: in vivo
[7] = Fraction unbound in dog plasma; assay type: ADME, cell-free, Canis lupus familiaris
[8] = target: T5, Prostaglandin D2 receptor 2 (Homo sapiens, UniProt Q9Y5Y4); test: Displacement of [3H]-PGD2 from CRTh2 receptor by scintillation proximity assay
T5 sequence (Q9Y5Y4 whole entry): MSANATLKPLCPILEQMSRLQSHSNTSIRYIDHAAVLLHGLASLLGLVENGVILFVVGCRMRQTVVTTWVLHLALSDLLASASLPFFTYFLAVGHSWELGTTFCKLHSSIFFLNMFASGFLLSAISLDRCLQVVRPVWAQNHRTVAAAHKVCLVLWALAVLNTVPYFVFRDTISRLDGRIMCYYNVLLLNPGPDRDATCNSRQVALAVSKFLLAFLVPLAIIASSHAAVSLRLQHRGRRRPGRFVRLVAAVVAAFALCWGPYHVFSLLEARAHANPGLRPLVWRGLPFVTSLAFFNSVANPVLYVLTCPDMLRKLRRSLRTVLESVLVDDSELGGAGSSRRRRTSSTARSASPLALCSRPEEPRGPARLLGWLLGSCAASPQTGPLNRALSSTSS

[9] = Oral bioavailability in dog; assay type: ADME, organism-based, Canis lupus familiaris; details: in vivo
Cytochrome P450 3A4 = Cytochrome P450 3A4 (Homo sapiens, UniProt P08684); test: Inhibition of CYP3A4; assay type: ADME
Sequence of Cytochrome P450 3A4 (P08684 whole entry): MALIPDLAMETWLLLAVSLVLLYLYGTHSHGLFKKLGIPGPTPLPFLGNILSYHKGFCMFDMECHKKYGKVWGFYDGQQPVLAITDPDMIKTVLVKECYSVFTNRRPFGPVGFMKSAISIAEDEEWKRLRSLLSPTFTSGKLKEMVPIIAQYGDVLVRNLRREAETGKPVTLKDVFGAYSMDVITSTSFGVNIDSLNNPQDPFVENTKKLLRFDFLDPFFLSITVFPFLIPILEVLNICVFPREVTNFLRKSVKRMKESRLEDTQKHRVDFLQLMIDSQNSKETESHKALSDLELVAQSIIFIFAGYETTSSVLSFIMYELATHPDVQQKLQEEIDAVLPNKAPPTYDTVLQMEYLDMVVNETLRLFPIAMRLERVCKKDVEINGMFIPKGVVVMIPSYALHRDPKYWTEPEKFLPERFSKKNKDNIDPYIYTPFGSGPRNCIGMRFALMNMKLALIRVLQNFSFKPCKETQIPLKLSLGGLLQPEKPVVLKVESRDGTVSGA

[10] = Fraction unbound in rat plasma; assay type: ADME, cell-free
[11] = target: T5, Prostaglandin D2 receptor 2; test: Antagonist activity at human CRTh2 receptor expressed in CHO cells assessed as inhibition of PGD2-induced calcium flux in presence of 1% bovine serum albumin; assay type: functional, cell-based
[12] = Aqueous solubility of the compound in buffer at pH 7.4; assay type: physicochemical
[13] = Intrinsic clearance in human liver microsomes
[14] = Intrinsic clearance in rat hepatocytes assessed per 1 x 10^6 cells
[15] = Half life in iv dosed rat; details: in vivo

- IC50 [1]: 1.3 nM
- IC50 (Cytochrome P450 1A2): > 50000 nM
- IC50 [2]: 63 nM
- IC50 (Cytochrome P450 2D6): > 50000 nM
- fraction unbound [3]: 0.046
- IC50 (Cytochrome P450 2C9): > 50000 nM
- IC50 [4]: 1 nM
- fraction unbound [5]: 0.026
- IC50 (Cytochrome P450 2C19): > 50000 nM
- bioavailability [6]: 42%
- fraction unbound [7]: 0.03
- IC50 [8]: 0.9 nM
- bioavailability [9]: 46%
- IC50 (Cytochrome P450 3A4): > 50000 nM
- fraction unbound [10]: 0.056
- IC50 [11]: 29 nM
SMILES: CCS(=O)(=O)c1ccc(-c2cc(C(F)(F)F)ccc2OCC(=O)O)c(C)c1
- Activity (Mus musculus): Active

- solubility [12]: > 80 µM
- microsomal CLint ([13]; liver microsomes): < 3 µL/min/mg
- hepatocyte CLint [14]: 3 µL/min/1e6 cells
- IC50 [8]: 45 nM
SMILES: O=C(O)COc1ccc(C(F)(F)F)cc1-c1ccccc1

- microsomal CLint ([13]; microsomes): < 3 µL/min/mg
- hepatocyte CLint [14]: 5 µL/min/1e6 cells
- bioavailability [6]: 96%
- IC50 [8]: 1.7 nM
- half-life [15]: 2.3 h
- IC50 [11]: 10 nM
SMILES: N#Cc1cccc(-c2cc(Cl)ccc2OCC(=O)O)c1
